Measurements as given in patent US20100292210A1, “Novel Compounds for A-Beta-Related Pathologies” (AstraZeneca AB, priority 2009, published 2010).

What follows are compounds tested on Aβ42 release (assay: Aβ42 release from HEK cells stably expressing APPswe, Meso Scale Discovery electrochemiluminescence assay). Conditions: Homo sapiens, HEK293; HEK cell line stably expressing APPswe; 4-6 h incubation with test compound; Aβ42 secreted to cell medium; read-out: pIC50 values of Aβ42 release (converted).
Type: cell-based
Method: The level of activity of the compounds on Aβ formation was tested using the following method:
Compounds were diluted in 100% DMSO and stored at […] prior to use. Human Embryonic Kidney (HEK) cell line stably expressing APP with the Swedish mutation (APPswe) were cultured using Dulbecco's Modified Eagles medium (DMEM) supplied with […] glucose, Na-pyruvate and GlutaMAX with 10% FBS, 100 U/ml penicillin-streptomycin (PEST) respectively, 1×non-essential amino acids (NEAA), […], 100 μg/ml Zeocine. Cells at about 80% confluence were washed with PBS, detached from culture flasks using 1×Trypsin/EDTA diluted in PBS, re-suspended in cell media and plated in 384-well poly-d-lysine coated cell culture plates at about 10000-15000 cells/well, in 25 μL cell media. Optionally, cryo-preserved cells (frozen and stored at −140° C. in 90% cell media and 10% DMSO) were thawed, washed and plated as above. Next the cells were incubated for 15-24 h at 37° C. and 5% CO2, after which cell medium was changed. Fresh medium containing test compound diluted ×200 from prepared compound plate was added to the cells before further incubation for 4-6 hours at 37° C. and 5% CO2. After incubation with test compound the amount of Aβ peptides, including Aβ42, Aβ40, Aβ39, Aβ38 and Aβ37, secreted to cell medium was analyzed using the electrochemiluminescence assay technology from Meso Scale Discovery Technology, in combination with specific antibodies raised against the different Aβ peptides. Potential cytotoxic effects of the compounds were usually assayed by measuring the ATP content (ViaLight) from cell lysate.

| IC50 [µM] | Compound |
| --- | --- |
| 0.0158 | COc1cc(Nc2ncc3c(n2)O[C@H](c2ccccc2)CN(CCF)C3)ccc1-n1cnc(C)c1 [Example 12, (R)-6-(2-fluoroethyl)-N-(3-methoxy-4-(4-methyl-1H-imidazol-1-yl)phenyl)-8-phenyl-5,6,7,8-tetrahydropyrimido[5,4-f][1,4]oxazepin-2-amine] |
| 0.158 | Cc1nccn1-c1ccc(Nc2ccc3c(n2)OC(c2ccccc2)CN(C)C3)cc1 (centres unmarked) [Example 8, 4-Methyl-N-(4-(2-methyl-1H-imidazol-1-yl)phenyl)-2-phenyl-2,3,4,5-tetrahydropyrido[3,2-f][1,4]oxazepin-8-amine] |
| 0.0794 | CN1Cc2ccc(Nc3ccc(-c4cnn(C)c4)cc3)nc2O[C@H](c2ccccc2)C1 [Example 59, (R)-4-Methyl-N-(4-(1-methyl-1H-pyrazol-4-yl)phenyl)-2-phenyl-2,3,4,5-tetrahydropyrido[3,2-f][1,4]oxazepin-8-amine] |
| 0.501 | COc1cc(Nc2ccc3c(n2)OC(c2cccnc2)CN(C(C)=O)C3)ccc1-n1cnc(C)c1 (centres unmarked) [Example 22, 1-(8-(3-Methoxy-4-(4-methyl-1H-imidazol-1-yl)phenylamino)-2-(pyridin-3-yl)-2,3-dihydropyrido[3,2-f][1,4]oxazepin-4(5H)-yl)ethanone] |
| 0.1 | COc1cc(Nc2cnc3c(n2)O[C@H](c2ccccc2)CN(CC#N)C3)ccc1-n1cnc(C)c1 [Example 38, (R)-2-(3-(3-methoxy-4-(4-methyl-1H-imidazol-1-yl)phenylamino)-6-phenyl-6,7-dihydropyrazino[2,3-f][1,4]oxazepin-8(9H)-yl)acetonitrile] |
| 0.0398 | COc1cc(Nc2ccc3c(n2)OC(c2ccccc2)CN(C)C3)ccc1-n1cnc(C)c1 (centres unmarked) [Example 7, N-(3-methoxy-4-(4-methyl-1H-imidazol-1-yl)phenyl)-4-methyl-2-phenyl-2,3,4,5-tetrahydropyrido[3,2-f][1,4]oxazepin-8-amine] |
| 0.398 | CN1CC(c2ccccc2)Oc2nc(Nc3ccc(-c4cnco4)cc3)ccc2C1=O (centres unmarked) [Example 3, 4-methyl-8-(4-(1,3-oxazol-5-yl)phenylamino)-2-phenyl-3,4-dihydropyrido[3,2-f][1,4]oxazepin-5(2H)-one] |
| 0.316 | COc1cc(Nc2ccc3c(n2)OC(c2cc(C)nn2C)CN(CC#N)C3)ccc1-n1cnc(C)c1 (centres unmarked) [Example 33, 2-(2-(1,3-Dimethyl-1H-pyrazol-5-yl)-8-(3-methoxy-4-(4-methyl-1H-imidazol-1-yl)phenylamino)-2,3-dihydropyrido[3,2-f][1,4]oxazepin-4(5H)-yl)acetonitrile] |
| 0.2 | COc1cc(Nc2ccc3c(n2)OC(c2ccccc2)CN(C)C3=O)ccc1-n1cnc(C)c1 (centres unmarked) [Example 4, 8-(3-methoxy-4-(4-methyl-1H-imidazol-1-yl)phenylamino)-4-methyl-2-phenyl-3,4-dihydropyrido[3,2-f][1,4]oxazepin-5(2H)-one] |
| 0.1 | CN1Cc2ccc(Nc3ccc(-n4ccnc4)cc3)nc2OC(c2ccccc2)C1 (centres unmarked) [Example 18, N-(4-(1H-imidazol-1-yl)phenyl)-4-methyl-2-phenyl-2,3,4,5-tetrahydropyrido[3,2-f][1,4]oxazepin-8-amine] |
| 0.158 | COc1cc(Nc2ccc3c(n2)OC(c2cccnc2)CN(C)C3)ccc1-n1cnc(C)c1 (centres unmarked) [Example 19, N-(3-methoxy-4-(4-methyl-1H-imidazol-1-yl)phenyl)-4-methyl-2-(pyridin-3-yl)-2,3,4,5-tetrahydropyrido[3,2-f][1,4]oxazepin-8-amine] |
| 0.126 | Cn1cc(-c2ccc(Nc3ccc4c(n3)O[C@H](c3ccccc3)CNC4)nc2)cn1 [Example 57, (R)—N-(5-(1-Methyl-1H-pyrazol-4-yl)pyridin-2-yl)-2-phenyl-2,3,4,5-tetrahydropyrido[3,2-f][1,4]oxazepin-8-amine] |
| 0.0316 | COc1cc(Nc2ccc3c(n2)OC(c2ccccc2)CN(CCF)C3)ccc1-n1cnc(C)c1 (centres unmarked) [Example 15, 4-(2-fluoroethyl)-N-(3-methoxy-4-(4-methyl-1H-imidazol-1-yl)phenyl)-2-phenyl-2,3,4,5-tetrahydropyrido[3,2-f][1,4]oxazepin-8-amine] |
| 0.501 | COc1cc(Nc2ccc3c(n2)OC(C2CC2)CN(C)C3)ccc1-n1cnc(C)n1 (centres unmarked) [Example 51, 2-Cyclopropyl-N-(3-methoxy-4-(3-methyl-1H-1,2,4-triazol-1-yl)phenyl)-4-methyl-2,3,4,5-tetrahydropyrido[3,2-f][1,4]oxazepin-8-amine] |
